Results: patent US9452997B2, “Piperidine and piperazine derivatives as autotaxin inhibitors” (Merck Patent GmbH, priority 2009, dated 2016)

Biological target: T1, Recombinant autotaxin (Homo sapiens, UniProt Q13822)
T1 construct: made in house; host or cells: Hi5 insect cells (baculovirus)
Experiment: Autotaxin assay (Amplex Red, LPC substrate)
Assay type: biochemical
Details: % of control at 1E−05 (compound concentration); uninhibited control = 100%
In short: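 Recombinant autotaxin (Hi5 baculovirus, 16 ng) pre-incubated with compound 30 min at 22° C, then reacted with 75 μM egg LPC for 90 min at 37° C. Choline released is coupled to H2O2 and Amplex Red fluorescence (ex 485/em 612 nm). IC50 from ten 1:3 dilutions from 30 μM, duplicates, normalised to 500 μM C14 LPA.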

% CTRL (1E−05)	SMILES
66%	O=C(c1cc(Cl)c(F)c(Cl)c1)N1CCC(N2CCN(C(=O)c3ccc4[nH]nnc4c3)CC2)CC1 [Compound 91, (1H-Benzotriazol-5-yl)-{4-[1-(3,5-dichloro-4-fluoro-benzoyl)-piperidin-4-yl]-piperazin-1-yl}-methanone]
83%	O=C(Nc1ccc2[nH]nnc2c1)C1CC(=O)N(C2CCN(C(=O)OCC3CCCO3)CC2)C1 (stereo not drawn) [Compound 27, 4-[4-(1H-Benzotriazol-5-ylcarbamoyl)-2-oxo-pyrrolidin-1-yl]-piperidine-1-carboxylic acid tetrahydro-furan-2-ylmethyl ester]

Same assay, conditions: recombinant autotaxin, LPC substrate, Amplex Red detection; values given as upper bounds

IC50	SMILES
< 30 µM	O=C(OCc1cc(Cl)cc(Cl)c1)N1CCC2(CC1)CCN(C(=O)c1ccc3[nH]nnc3c1)CC2 [Compound 29, 9-(1H-Benzotriazole-5-carbonyl)-3,9-diaza-spiro[5.5]undecane-3-carboxylic acid 3,5-dichloro-benzyl ester]
< 1 µM	O=C(/C=C/c1cc(Cl)cc(Cl)c1)N1CCC(N2CCN(C(=O)c3ccc4[nH]nnc4c3)CC2)CC1 [Compound 90, (E)-1-{4-[4-(1H-Benzotriazole-5-carbonyl)-piperazin-1-yl]-piperidin-1-yl}-3-(3,5-dichloro-phenyl)-propenone]
< 10 µM	O=C(c1ccc2[nH]nnc2c1)N1CCC(N2CCN(C(=O)c3ccccc3-c3ccc(C(F)(F)F)cc3)CC2)CC1 [Compound 124, (1H-Benzotriazol-5-yl)-{4-[4-(4′-trifluoromethyl-biphenyl-2-carbonyl)-piperazin-1-yl]-piperidin-1-yl}-methanone]
< 1 µM	O=C(OCc1ccc(F)c(C(F)(F)F)c1)N1CCN(C2CCN(C(=O)c3ccc4[nH]nnc4c3)CC2)CC1 [Compound 100, 4-[1-(1H-Benzotriazole-5-carbonyl)-piperidin-4-yl]-piperazine-1-carboxylic acid 4-fluoro-3-trifluoromethyl-benzyl ester]
< 30 µM	O=C(CCc1ccc(C(F)(F)F)cc1)N1CCC(N2CCN(C(=O)c3cccc(-c4ncc[nH]4)c3)CC2)CC1 [Compound 60, 1-(4-{4-[3-(1H-Imidazol-2-yl)-benzoyl]-piperazin-1-yl}-piperidin-1-yl)-3-(4-trifluoromethyl-phenyl)-propan-1-one]
< 10 µM	Cc1ccc(-c2cccc(C(=O)N3CCC(C4CCN(C(=O)c5ccc6[nH]nnc6c5)CC4)CC3)c2)cc1 [Compound 13, [1′-(1H-Benzotriazole-5-carbonyl)-[4,4′]bipiperidinyl-1-yl]-(4′-methyl-biphenyl-3-yl)-methanone]
< 10 µM	O=C(OCc1ccc(Cl)cc1F)N1CCC(NC2CCN(C(=O)c3ccc4[nH]nnc4c3)CC2)C1 (stereo not drawn) [Compound 63, 3-[1-(1H-Benzotriazole-5-carbonyl)-piperidin-4-ylamino]-pyrrolidine-1-carboxylic acid 4-chloro-2-fluoro-benzyl ester]
< 1 µM	O=C(Nc1ccc2[nH]nnc2c1)C1CC(=O)N(C2CCN(C(=O)OCc3cc(Cl)cc(Cl)c3)CC2)C1 (stereo not drawn) [Compound 4, 4-[4-(1H-Benzotriazol-5-ylcarbamoyl)-2-oxo-pyrrolidin-1-yl]-piperidine-1-carboxylic acid 3,5-dichloro-benzyl ester]
< 1 µM	O=C(Nc1ccc2[nH]nnc2c1)C1CC(=O)N(C2CCN(C(=O)CCc3ccc(C(F)(F)F)cc3)CC2)C1 (stereo not drawn) [Compound 3, 5-Oxo-1-{1-[3-(4-trifluoromethyl-phenyl)-propionyl]-piperidin-4-yl}-pyrrolidine-3-carboxylic acid (1H-benzotriazol-5-yl)-amide]
< 1 µM	O=C(OCc1cc(C(F)(F)F)cc(C(F)(F)F)c1)N1CCN(C2CCN(C(=O)c3ccc4[nH]c(=O)sc4c3)CC2)CC1 [Compound 163, 4-[1-(2-Oxo-2,3-dihydro-benzothiazole-6-carbonyl)-piperidin-4-yl]-piperazine-1-carboxylic acid 3,5-bis-trifluoromethyl-benzyl ester]
< 10 µM	O=C(OCc1ccc(C(F)(F)F)cc1)N1CCN(C2CCN(C(=O)c3ccc4[nH]c(=S)[nH]c4c3)CC2)CC1 [Compound 127, 4-[1-(2-Thioxo-2,3-dihydro-1H-benzoimidazole-5-carbonyl)-piperidin-4-yl]-piperazine-1-carboxylic acid 4-trifluoromethyl-benzyl ester]
< 10 µM	O=C(Nc1ccc2[nH]c(=O)oc2c1)C1CC(=O)N(C2CCN(C(=O)OCc3ccc(Cl)cc3)CC2)C1 (stereo not drawn) [Compound 16, 4-[2-Oxo-4-(2-oxo-2,3-dihydro-benzooxazol-6-ylcarbamoyl)-pyrrolidin-1-yl]-piperidine-1-carboxylic acid 4-chloro-benzyl ester]
< 10 µM	O=C(OCc1cc(C(F)(F)F)ccc1F)N1CCC(N2CCN(C(=O)c3ccc4[nH]nnc4c3)CC2)CC1 [Compound 74, 4-[4-(1H-Benzotriazole-5-carbonyl)-piperazin-1-yl]-piperidine-1-carboxylic acid 2-fluoro-5-trifluoromethyl-benzyl ester]
< 1 µM	O=C(CCc1ccccc1O)N1CCC(C2CCN(C(=O)c3ccccc3-c3cccc(C(F)(F)F)c3)CC2)CC1 [Compound 1, 3-(2-Hydroxy-phenyl)-1-[1′-(3′-trifluoromethyl-biphenyl-2-carbonyl)-[4,4′]bipiperidinyl-1-yl]-propan-1-one]
< 10 µM	COc1cc(COC(=O)N2CCN(C3CCN(C(=O)c4ccc5[nH]nnc5c4)CC3)CC2)cc(OC)c1 [Compound 150, 4-[1-(1H-Benzotriazole-5-carbonyl)-piperidin-4-yl]-piperazine-1-carboxylic acid 3,5-dimethoxy-benzyl ester]
< 1 µM	CCc1ccc(COC(=O)N2CCN(C3CCN(C(=O)c4ccc5[nH]nnc5c4)CC3)CC2)cc1 [Compound 151, 4-[1-(1H-Benzotriazole-5-carbonyl)-piperidin-4-yl]-piperazine-1-carboxylic acid 4-ethyl-benzyl ester]
< 30 µM	O=C(OCc1cn(-c2ccc(Cl)cc2)nn1)N1CCN(C2CCN(C(=O)c3ccc4[nH]nnc4c3)CC2)CC1 [Compound 131, 4-[1-(1H-Benzotriazole-5-carbonyl)-piperidin-4-yl]-piperazine-1-carboxylic acid 1-(4-chloro-phenyl)-1H-[1,2,3]triazol-4-ylmethyl ester]
< 10 µM	COc1ccc(Cl)cc1NC(=O)CN1CCC(N2CCN(C(=O)c3ccc4[nH]nnc4c3)CC2)CC1 [Compound 181, 2-{4-[4-(1H-Benzotriazole-5-carbonyl)-piperazin-1-yl]-piperidin-1-yl}-N-(5-chloro-2-methoxy-phenyl)-acetamide]
< 1 µM	O=C(OCc1cc(Cl)cc(Cl)c1)N1CCC(C2CCN(C(=O)c3ccc4[nH]nnc4c3)CC2)CC1 [Compound 12, 1′-(1H-Benzotriazole-5-carbonyl)-[4,4′]bipiperidinyl-1-carboxylic acid 3,5-dichloro-benzyl ester]
< 1 µM	O=C(OCc1ccc(OC(F)(F)F)c(F)c1)N1CCN(C2CCN(C(=O)c3ccc4[nH]nnc4c3)CC2)CC1 [Compound 118, 4-[1-(1H-Benzotriazole-5-carbonyl)-piperidin-4-yl]-piperazine-1-carboxylic acid 3-fluoro-4-trifluoromethoxy-benzyl ester]
< 10 µM	O=C(NCc1ccc(SC(F)(F)F)cc1)N1CCN(C2CCN(C(=O)c3ccc4[nH]nnc4c3)CC2)CC1 [Compound 122, 4-[1-(1H-Benzotriazole-5-carbonyl)-piperidin-4-yl]-piperazine-1-carboxylic acid 4-trifluoromethylsulfanyl-benzylamide]
< 30 µM	N[C@@H](Cc1c[nH]cn1)C(=O)N1CCN(C2CCN(C(=O)OCc3ccc(C(F)(F)F)cc3)CC2)CC1 [Compound 89, 4-{4-[(S)-2-Amino-3-(1H-imidazol-4-yl)-propionyl]-piperazin-1-yl}-piperidine-1-carboxylic acid 4-trifluoromethyl-benzyl ester]
< 1 µM	O=C(OCc1cc(F)cc(Br)c1)N1CCN(C2CCN(C(=O)c3ccc4[nH]nnc4c3)CC2)CC1 [Compound 154, 4-[1-(1H-Benzotriazole-5-carbonyl)-piperidin-4-yl]-piperazine-1-carboxylic acid 3-bromo-5-fluoro-benzyl ester]
< 1 µM	O=C(OCc1ccc(C(F)(F)F)c(F)c1)N1CCN(C2CCN(C(=O)c3ccc4[nH]nnc4c3)CC2)CC1 [Compound 158, 4-[1-(1H-Benzotriazole-5-carbonyl)-piperidin-4-yl]-piperazine-1-carboxylic acid 3-fluoro-4-trifluoromethyl-benzyl ester]
< 10 µM	O=C(OCc1cc(Cl)cc(C(F)(F)F)c1)N1CCN(C2CCN(S(=O)(=O)c3ccc4[nH]c(=O)oc4c3)CC2)CC1 [Compound 183, 4-[1-(2-Oxo-2,3-dihydro-benzooxazole-6-sulfonyl)-piperidin-4-yl]-piperazine-1-carboxylic acid 3-chloro-5-trifluoromethyl-benzyl ester]
< 30 µM	O=C(Nc1cc(Cl)cc(Cl)c1)N1CCN(C2CCN(C(=O)c3ccc4[nH]nnc4c3)CC2)CC1 [Compound 31, 4-[1-(1H-Benzotriazole-5-carbonyl)-piperidin-4-yl]-piperazine-1-carboxylic acid (3,5-dichloro-phenyl)-amide]
< 10 µM	O=C(OCC1CN(c2ccc(Cl)cc2)C(=O)O1)N1CCN(C2CCN(C(=O)c3ccc4[nH]nnc4c3)CC2)CC1 (stereo not drawn) [Compound 175, 4-[1-(1H-Benzotriazole-5-carbonyl)-piperidin-4-yl]-piperazine-1-carboxylic acid 3-(4-chloro-phenyl)-2-oxo-oxazolidin-5-ylmethyl ester]
< 1 µM	O=C(OCc1ccc(Cl)cc1F)N1CCN(C2CCN(C(=O)c3ccc4[nH]nnc4c3)CC2)CC1 [Compound 36, 4-[1-(1H-Benzotriazole-5-carbonyl)-piperidin-4-yl]-piperazine-1-carboxylic acid 4-chloro-2-fluoro-benzyl ester]
